“Also recorded” adds a separate entry of the source.
Test system: human neutrophils
Assay: Human neutrophil migration (Transwell)
Type: cell-based
Experimental: Human peripheral blood neutrophils were isolated from healthy volunteer buffy coats. Initially, the majority of red blood cells were sedimented using 2% w/v dextran sulfate in a 0.9% NaCl solution for 15 min. Next, the upper phase was centrifuged for 10 min at 200g and the supernatant was discarded. The pellet was resuspended in 0.9% NaCl solution, and neutrophils were separated from here using Lymphoprep (STEMCELL Technologies #07851) and density-gradient centrifugation (400g for 30 min). Then, the remaining red blood cells were subjected to hypotonic lysis by addition of 10 mL of sterile water followed by addition of 10 mL of 1.8% NaCl solution. Cell count and viability were determined using trypan blue and a Countess cell counter. […]
Freshly isolated human peripheral neutrophils were used in migration assays using the Boyden style Corning HTS Transwell 96 well system with 3 μm pores (Corning #3385). […] Finally, the number of cells that had migrated to the bottom chamber was assessed using the ATPLite Luminescence assay system (PerkinElmer #6016943) according to the manufacturer’s instructions. Luminescence was measured on an LUMIstar Omega microplate reader (PerkinElmer). Experiments were performed in triplicate and analyzed using GraphPad Prism (version 9). Fold response was calculated as the relative migration of samples compared to the vehicle control.

## COc1cccc(CC(=O)N[C@@H](Cc2ccc(C(F)(F)F)cc2)Cc2nnn[nH]2)c1 [Compound 16l, (S)-N-(1-(1H-Tetrazol-5-yl)-3-(4-(trifluoromethyl)phenyl)propan-2-yl)-2-(3-methoxyphenyl)acetamide]
fMLP-induced
  effect on neutrophil migration induced by fMLP: did not exhibit any effect
Propionate (C3) 1 mM
  inhibition of propionate-induced neutrophil migration: completely inhibit; also recorded: fully inhibit migration; also recorded: complete inhibition

Source: publication PMC10547238, “Discovery of Potent Tetrazole Free Fatty Acid Receptor 2 Antagonists” (Journal of Medicinal Chemistry, 2023)
